Reference: patent US7790160B2, “Method of treating CD30 positive lymphomas” (Medarex, Inc., priority 2004, dated 2010)
“Also recorded” adds a separate entry of the source. Where a SMILES comes first, the peptide text is derived from it. The star is where a group is joined. Cbz = O=C(OCc1ccccc1)*

B1: 5F11: fully human monoclonal antibody directed against CD30; VH SEQ ID NO: 10, VL SEQ ID NO: 12 (antibody, listed as Homo sapiens, V domains shown)
VH: QVQLQQWGAGLLKPSETLSLTCAVYGGSFSAYYWSWIRQPPGKGLEWIGDINHGGGTNYNPSLKSRVTISVDTSKNQFSLKLNSVTAADTAVYYCASLTAYWGQGSLVTVSS
VL: DIQMTQSPTSLSASVGDRVTITCRASQGISSWLTWYQQKPEKAPKSLIYAASSLQSGVPSRFSGSGSGTDFTLTISSLQPEDFATYYCQQYDSYPITFGQGTRLEIK

Experiments:
[1] = system: L540 cells; experiment: Annexin V binding assay (annexinV-FITC staining, FACS); assay type: cell-based, human; conditions: each agent alone, subtoxic concentrations
Protocol: FIG. 1: Induction of apoptosis in L540 cells after treatment with 5F11 and MG132 L540 cells were cultured for 16 h with PBS (control), crosslinked 5F11, MG132 or a combination of 5F11 and MG132. The apoptotic cells were labeled by annexinV-FITC staining and the percentage of viable and apoptotic cells is given as estimated in FACS analysis. The results of three independent experiments are shown.
2×10^5 L540 cells were incubated (in triplicate) either with 5F11/GaH, bortezomib, or both, or in plain medium as described above at 37° C. for 12 h. To detect apoptotic cells, the translocation of phosphatidylserine to the outer leaflet of the plasma membrane was determined by flow cytometry (FACS calibur Bengton & Dickinson Flow Cytometer) after staining with annexin V conjugated to fluorescein as recommended (Annexin V-FITC apoptosis detection kit I, BD Bioscience, USA). Triplicateswere used to calculate means and standard deviations.

[2] = system: NF-κB subunit p65 in L540 cells; experiment: Detection of NF-κB subunit p65 with indirect immunofluorescence; assay type: cell-based, human; conditions: for expression level and nuclear localisation of NF-κB (p65 staining): L540 cells, crosslinked 5F11 or bortezomib
Protocol: (§1) Cytospins were provided (1 min at 1000 U/min) to determine the effect of 5F11 and/or bortezomib on apoptosis and NFκB-activation in L428 and L540 cells on the single cell level. 2×10^5 cells were seeded in six-well microtiter plates in 3 ml plain media (control) or with 5F11+GaH (5 μg/25 μg per ml) or bortezomib (10 nM) or both. Incubation time was 30 min for 5F11, 1 h for crosslinking GaH and at least six hours for bortezomib, all at 37° C. The slides were dried overnight at room temperature and fixed using ice-cold acteone (30 sec incubation). The TUNEL assay was performed using the In Situ Cell Death Detection Kit, TMR red (Roche) according to the manufacturers instructions. Finally, cells were mounted with VECTASHIELD Mounting Medium containing DAPI (Vector Laboratories, Burlingame, Calif.) or stained with an rabbit-anti-p65 antibody (Santa Cruz, 10 nM) and a second FITC-labeled mouse-anti-rabbit antibody (10 nM). Cytospin preparations were analyzed by fluorescence microscopy.
In order to exclude non-specific antibody binding, slides of untreated cells were stained either with rabbit-anti-p65-IgG, or FITC-conjugated mouse-anti-rabbit-IgG, or DAPI.

[3] = system: subcutaneous L540Cy Hodgkin tumors; experiment: Xenograft model of human HD; assay type: in vivo; conditions: SCID mice; for tumor growth compared to the control group receiving PBS: 100 μg 5F11 i.p., 10 ng bortezomib i.v. 6 hours later, 4 injections; for tumor growth in the weeks after treatment: several weeks after the 4 injections
Protocol: FIG. 3: Effect of 5F11 and bortezomib on the tumor growth of subcutaneous L540Cy Hodgkin tumors in SCID mice. The mice were randomly divided into four groups when the L540 derived tumors reached a volume of about 100 mm3 to receive PBS, 5F11 (100 μg), bortezomib (10 ng) or the combination of 5F11 and bortezomib. The tumor volume of each mouse is given. The arrows indicate the days of treatment.
The xenograft model of human HD has been described previously (17). Subcutaneous solid L540Cy tumors were established by injection of L540Cy cells (1×10^7) resuspended in 200 μL PBS into the right flank of pathogen-free severe combined immunodeficiency (SCID) mice (FOX CHASE SCID; Taconic M&B A/S, Ry, Denmark). Tumor development was measured every 3 days and the tumor volume was determined using the formula (length×width×height/2). Animals with established tumors of about 100 mm^3 were divided randomly into four groups, which received 100 μg 5F11 (in 200 μL PBS intraperitoneally) and 6 hours later 10 ng bortezomib i.v. by tail vein or each agent alone for a total of 4 injections. Control mice received PBS only. The experiment was stopped and the mice killed when the median […] in the control group exceeded 2500 mm^3 (day 50). The treatment and control groups consisted of 4 animals each and results were confirmed by repeating the experiments.

[4] = system: c-flip in L540 cells; experiment: SDS-PAGE and Western blotting; assay type: cell-based, human; conditions: CD30 stimulation with 5F11, co-incubation with bortezomib for 6, 8 and 16 hours
Protocol: (§2) Whole cell protein extracts were prepared in 1× Laemmli solution (10 μg) were separated using sodium dodecyl sulfate polyacrylamide gel electrophoresis (SDS-PAGE) using 4-15% gels. Proteins were transferred to a nitrocellulose membrane (Hybond-C, Amersham Pharmacia Biotech Inc., Freiburg, Germany) and blocked with Roti-Block (Roth, Karlsruhe, Germany) for 1 h at room temperature. Immunoblots were incubated with the primary antibodies obtained from the Apoptosis Sampler Kits I and II (BD Bioscience, CA) in PBS with 10% fetal calf serum as recommended. The c-flip specific antibody was purchased from Sigma (F-6550). Bound antibodies were detected with horseradish peroxidase-conjugated secondary donkey-anti-mouse or rabbit-IgG mAb (Dianova, Hamburg, Germany) or horseradish peroxidaseconjugated goat-anti-mouse IgG (Dianova) diluted 1/10000. The proteins were visualized using the ECL Western blotting detection reagents (Amersham Pharmacia) according to manufacturers instructions.

[5] = system: c-flip in L428 cells; experiment: SDS-PAGE and Western blotting; assay type: cell-based, human; conditions: CD30 stimulation with 5F11, co-incubation with bortezomib for 6, 8 and 16 hours
Protocol: as §2

[6] = system: NF-κB-responsive luciferase reporter gene in L428 cells; experiment: Transient transfection and luciferase reporter gene assay; assay type: cell-based, human; conditions: L428 transfected with pNF-κB-luc
Protocol: L428 cells were transfected with either the reporter constructs pCMV-luc (transfection control) or pNF-κB-luc (bar 2-4) or pNF-κB-luc together with the expression vector IkBM (bar 5-7). The transfection efficacy was about 10% and the total amount of DNA was kept constant. After an over night recovery period transfectants were treated with PBS (basal), 5F11 or bortezomib for 24 hours. The luciferase activity (RLU) of the cells were measured and is given to indicate the relative levels of NF-κB-dependent promoter activity.
5×10^6 L428 cells in 1 ml medium were transiently transfected by means of electroporation with 10 μg NF-κB-luc, IkBaM and CMV-GFP. Cells were seeded into six-well plates with additional 2 ml of plain medium. After 24 h incubation at 37° C., GFP transfected cells were examined for green flourescence as indicator of transfection efficacy, which varied from 5% to 10%. Cells were incubated either with 20 μg/ml 5F11+100 μg/ml GaH for 2 h, or with 10 ng/ml bortezomib or both or plain media for 12 h at 37° C. After harvesting the cells were washed twice in PBS (phosphate buffered saline).
Lysis was performed using 1 ml ice-cold reporter lysis buffer (Promega), and lysates were frozen at −70° C. for 1 hour. Luciferase activity was measured using 30 μl lysate in a 96-well luminometry-plate and analyzed by luminometry. Untreated cells, transfected with the reporter gene were used to obtain baseline NF-κB-activity. All assays were done in triplicate to obtain means and standard deviations.

[7] = system: Karpas 299 cells; experiment: XTT viability assay; conditions: Karpas299, 5F11 + GaH pre-incubated 30 minutes, versus absence of 5F11, 48 hours
[8] = system: REH cells; experiment: XTT viability assay, CD30-negative control line; conditions: REH cells (do not express CD30), bortezomib alone
Description: (§5) An XTT-assay showing viability of the Hodgkin cell lines L540 (A), L428 (B) and the ALCL line Karpas299 (C) and the CD30 negative cell line REH (E) after exposure to increasing amounts of bortezomib in the presence (diamond) or absence (triangle) of 5F11.

[9] = system: L540 cells; experiment: XTT viability assay; assay type: cell-based, human
Description: (§3) Each measurement was done in triplicate.

[10] = system: L428 cells; experiment: XTT viability assay; assay type: cell-based, human
Description: as §3

[11] = system: bcl-2, bax, TRADD and FADD; experiment: SDS-PAGE and Western blotting of candidate proteins related to NF-κB activation; assay type: cell-based, human; conditions: following 5F11 crosslinking or bortezomib treatment
Protocol: as §2

[12] = system: L428 cells; conditions: 5F11 alone, even at higher concentrations (ref. 17); cited from earlier work
[13] = system: REH cells
Description: as §5

[14] = system: NF-κB DNA binding in L428 cells; experiment: Electrophoretic mobility shift assay (EMSA); assay type: cell-based, human; conditions: L428 nuclear extract, crosslinked antibody
Protocol: (§4) Electrophoretic mobility shift assays (EMSA) were performed to visualize binding of NF-κB to DNA. Nuclear protein extract (5 μg; 20 mM HEPES, pH 7.9, 400 mM NaCl, 1 mM EDTA, 1 mM EGTA) from cells treated with different antibodies were incubated with ^32P-labeled oligonucleotides with the NF-κB binding sequence (Santa Cruz) for 30 minutes at room temperature. The DNA/protein complexes were separated using electrophoresis on 6% native polyacrylamide gels.

[15] = system: NF-κB DNA binding in L540 cells; experiment: Electrophoretic mobility shift assay (EMSA); assay type: cell-based, human; conditions: L540 nuclear extract, crosslinked antibody
Protocol: as §4

[16] = system: L540 cells; experiment: TUNEL assay with 5F11 binding staining (GaH-FITC); assay type: cell-based, human
Protocol: as §1
The cellular reponse to 5F11 in the partial apoptosis-resistent HD-derived cell line L540 on the single cell level was analyzed. To visualize binding of 5F11 and apoptosis simultaneously, L540 cells were incubated with 5F11 and a FITC labeled crosslinking goat-anti human antibody before performing a TUNEL assay. […]

Row | Molecule | enhancement of apoptosis compared to the control (annexin-V staining and FACS analysis) [1] | expression level and nuclear localisation of NF-κB (p65 staining) [2] | tumor growth compared to the control group receiving PBS [3] | tumor growth in the weeks after treatment [3] | expression of c-flip (Western blotting) [4] | expression of c-flip (Western blotting) [5] | bcl-2 and bax expression (Western blotting) [11] | expression levels of TRADD and FADD (Western blotting) [11] | further results
1 | CC(C)C[C@@H](C=O)NC(=O)[C@H](CC(C)C)NC(=O)[C@H](CC(C)C)NC(=O)OCc1ccccc1 [MG132, carbobenzoxyl-leucinyl-leucynil-leucynal, reference compound] (Cbz-Leu-Leu-Leu-aldehyde) | did not enhance apoptosis |  |  |  |  |  |  |  | 
2 | CC(C)C[C@H](NC(=O)[C@H](Cc1ccccc1)NC(=O)c1cnccn1)B(O)O [bortezomib, reference compound] |  | exclusion of NF-κB from the cell nuclei | significantly delayed tumor growth | tumor progression | downregulation | downregulation | Only minor changes | remained unaltered | 5F11-induced NF-κB staining increase and nuclear accumulation in the presence of bortezomib ([2]; L540, bortezomib given 30 minutes after 5F11 stimulation, observed after 6 and 8 hours): inhibited; 5F11-induced activation of the NF-κB reporter gene in the presence of bortezomib [6]: supressed; basal activity of the NF-κB reporter [6]: reduced; IC50 of bortezomib in the presence of 5F11 [7]: decreased; cytotoxicity (XTT) [8]: killed by bortezomib in a dose dependent manner; IC50 of bortezomib in the presence of 5F11 ([9]; L540, 5F11 + GaH pre-incubated 30 minutes, versus absence of 5F11, 48 hours): decreased; cell viability (XTT) ([9]; L540, bortezomib 25 ng/ml, with or without pre-treatment with subtoxic 5F11 + GaH, 48 h): minimal reduction of viability; IC50 of bortezomib in the presence of 5F11 ([10]; L428, 5F11 + GaH pre-incubated 30 minutes, versus absence of 5F11, 48 hours): decreased
3 | B1 | did not enhance apoptosis | increased; also recorded: nuclear accumulation | significantly delayed tumor growth | tumor progression | induced strongly | induced strongly | Only minor changes | remained unaltered | sensitivity of L428 cells to 5F11 [12]: resistant; effect of pre-incubation with 5F11 on the cytotoxic potential of bortezomib [13]: no effect; activation of the NF-κB reporter gene (luciferase activity) ([6]; stimulation with 5F11): about two-fold; DNA-binding activity of NF-κB (EMSA) [14]: enhanced DNA binding; DNA-binding activity of NF-κB (EMSA) [15]: enhanced DNA binding; enhancement of the cytotoxic activity of bortezomib, reversed sequence ([10]; L428 first incubated with bortezomib for 30 minutes, then with the antibody): does not increase; also recorded: did not enhance; binding of 5F11 (staining with GaH-FITC) ([16]; L540 cells incubated with 5F11 and FITC labeled crosslinking goat-anti human antibody): All L540 cells were stained; apoptosis on the single cell level (TUNEL assay) ([16]; L540 cells, 5F11 crosslinked with GaH, subtoxic concentrations in the combination): only a subset of the cells were rendered apoptotic
